Assay results published in article PMC11500415, “Chemical inhibition of stomatal differentiation by perturbation of the master-regulatory bHLH heterodimer via an ACT-Like domain” (Nature Communications, 2024).
“And” between values parts separate entries of the source, which are not always exact repeats. Identical values can stand only once. “Also recorded” adds a separate entry of the source.

Assays:
[1] = tested on: Arabidopsis WT seedlings on solid MS media; assay: Stomatal development bioassay on solid media; assay type: in vivo; details: for MI (%) meristemoid index / SI (%) stomatal index: solid culture, cotyledon abaxial epidermis, individual seedlings
Protocol: Arabidopsis accession Columbia (Col-0) was used as wild-type. […] Their genotype and transcript reduction were confirmed. The presence of transgenes/mutant alleles were confirmed by genotyping. For liquid culture with Stomidazolone (AYSJ929, compound 3), the analogs (AYSJ1059 (compound 5) and AYSJ1061 (compound 6)), degraded compound lzx103 (compound 4), and SIM3* (compound 7), all compounds were dissolved in dimethyl sulfoxide (DMSO, Molecular biology grade, Fujifilm Wako, Japan 046-21981), Col-0 seeds were sown in 96-well plates (TL5003; True Line) containing 95 μL of 1/2 MS media containing 0.5% sucrose with rotary shaking at 140 rpm under continuous light at 22 °C. Five μL of compounds were dissolved in DMSO at 10 mM and diluted with liquid 1/2 MS media to 1 mM and added on 1-day-old seedlings (final concentration, 50 μM). Seedlings were incubated for 8 days, and at day 9 seedling abaxial cotyledons were observed through confocal microscopy. For liquid culture of scrm-D_S343 and scrm-D_S423, 1/2 MS liquid media without sucrose was used. For the solid culture, 0, 20, 50 or 100 μM Stomidazolone were solidified with low-melting agarose (5805S, PrimeGelTM Agarose LMT 1-20 K, TAKARA Bio). Briefly, 1/2 MS salt, 0.5% sucrose, and 0.8% low melting agarose were mixed in water and autoclaved. After cooling the medium at around 30 °C, Stomidazolone (500x, dissolved in DMSO) was added and poured into 90 mm petri dishes (Asnol Petri Dish JP φ90 x 15 mm, 3-1491-01, AS ONE). Col-0 seeds were sown on Stomidazolone-containing 1/2 MS agarose media and grown under continuous light for 9 days.
For quantitative analysis of the abaxial leaf epidermis, confocal images were taken on the days after germination as indicated in the Figure legends. Preparation of images was done as described previously[32],[70]. For counting epidermal cell types, stomatal density, stomatal precursor cells (meristemoids), total stomata-lineage cells (stomata and meristemoids) were calculated by counting cell types in an area of 0.4 mm^2 (0.63 mm × 0.63 mm) and plotted as per mm^2. A series of Z-stack confocal images was obtained to obtain images covering the epidermis and capturing GFP/YFP signal from the reporter lines. The area and the number of epidermal cells were quantified by using FIJI-ImageJ. Statistical analyses were performed using R ver. 4.0.2. Sample sizes (n) are indicated and defined in each legend. For the multiple sample comparison, 1-way ANOVA was performed followed by a post hoc Tukey HSD test. For the two-sample comparison, Student’s T-test was performed. Graphs were generated using R ggplot2 package. For all boxplots, each box represents IQR (interquartile range), in which top, middle line, and bottom indicating 75, 50, and 25 percentiles, respectively, and the bar representing maximum to minimal values. Each magenta dot represents jittered individual data point. The datapoints that go beyond the bar are outliers, which are indicated as black dots. If the data point is greater than Q3 + 1.5*IQR (above the third quartile is greater than 1.5 times of the interquartile range) or less than Q1 − 1.5*IQR, that data point is classified as outlier. The color of Boxplot graph was based on ColorBrewer.org. The value of n, the number of each experiment or samples, the means of error bars, and how statistical significance was defined are indicated in a relevant figure legend. See Source Data for quantitative data underlying each figure.

[2] = tested on: Commelina benghalensis stomatal opening induced by light; assay: Measurement of stomatal opening; assay type: in vivo; details: 50 µM; light 3 h (Supplementary Fig. 1)
Protocol: The experiments were performed as described previously[30],[68]. Briefly, Stomidazolone or ABA were added to a multi-well plate with basal buffer [5 mM MES/bistrispropane (pH 6.5), 50 mM KCl, and 0.1 mM CaCl2] to be diluted to a final concentration of 50 or 20 µM, respectively. C. benghalensis plants were incubated in the dark overnight; then, 4 mm diameter leaf discs were excised from fully expanded leaves using a hole punch (Biopsy Punch, Kai Medical). Samples were immersed in a basal buffer containing compounds for 30 min before being exposed to light (150 µmol m^−2 s^−1 red light and 50 µmol m^−2 s^−1 blue light) for 3 h. The stomatal apertures were observed using a stereoscopic microscope (BX43; Olympus). The microscopic images were acquired with a charge-coupled device (CCD) camera (DP27; Olympus), followed by autofocus image processing using cellSens standard software (Olympus). Measurement of stomatal apertures of C. benghalensis was performed by using an automation program, DeepStomata[69].

O=C1C(c2ccccc2)=NC(NS(=O)(=O)c2ccccc2)(c2ccccc2)N1S(=O)(=O)c1ccccc1 (stereo not shown) [Stomidazolone]
MI (%) meristemoid index ([1]; 20 uM): 2.39% and 0% and 2.612% and 2.336% and 2.778% and 1.339% and 0.4219% and 0.7905% | SI (%) stomatal index ([1]; 20 uM): 22.3108% and 29.661% and 27.2388% and 24.7664% and 32.1429% and 24.5536% and 35.443% and 19.7628% | MI (%) meristemoid index ([1]; 50 uM): 0% and 2.954% and 0.8658% and 1.852% and 0.4878% and 0.5208% and 2.991% | SI (%) stomatal index ([1]; 50 uM): 27.027% and 21.097% and 20.3463% and 25.9259% and 27.9412% and 25.8537% and 27.6042% and 20.9402% | MI (%) meristemoid index ([1]; 100 uM): 2.4% and 0.7812% and 3.364% and 2.326% and 0.4717% and 8.069% and 4.2623% and 3.509% | SI (%) stomatal index ([1]; 100 uM): 20.4% and 25% and 12.844% and 16.2791% and 24.0566% and 14.9856% and 17.377% and 15.4386% | effect on seedling growth ([1]; solid media, 100 μM (Supplementary Fig. 2d)): subtle growth retardation | effect on stomatal differentiation (in words) ([1]; solid media, 20, 50, 100 μM (Supplementary Fig. 2a-c)): inhibited stomatal differentiation in a dose-dependent manner | effect on seedling morphology / growth ([1]; solid media, 20 and 50 μM (Supplementary Fig. 2d)): does not impact; also recorded: does not affect growth | effect on stomatal movement (in words) [2]: did not exhibit any discernable effects; also recorded: does not affect
